One assay concerns RBL-2H3 cells. Nature of the assay: IgE-induced Beta-hexosaminidase secretion in RBL-2H3 cells. In kind it is cell-based. As to conditions: Rattus norvegicus, RBL-2H3, RBL-2H3 cells sensitized with SPE-7, stimulated with DNP-BSA; upper bound of each range is 'less than'; read-out: IC50, IgE-induced Beta-hexosaminidase secretion.
Another assay deals with Syk kinase (Homo sapiens, UniProt P43405). Description: Syk kinase enzymatic assay (Kit-Tyr 2 Peptide). It counts as biochemical. As to conditions: 8 concentrations, 1 μM down to 0.0003 μM; upper bound of each range is 'less than'; read-out: IC50: Enzymatic Activity (Syk kinase).

The term IC50 denotes the concentration that inhibits the measured activity by half.

For the compound `CC1CN(c2ccc(-c3cc4nccnc4c(NCC4CNCCC4(F)F)n3)cc2)CCO1` (stereo not shown) [Compound 309], the IC50 in the assay on RBL-2H3 cells and on Syk kinase was 0.001 to 0.1 µM throughout.
`Cc1cc(-c2cc3nccnc3c(NC[C@@H]3CN(C(=O)C(F)F)CCO3)n2)ccc1N1CCOCC1` [Compound 450]: the concentration for half-maximal inhibition (IC50) with RBL-2H3 cells and on Syk kinase was 0.001 to 0.1 µM in each case.
With `Fc1ccc(-c2cc3nccnc3c(NCC3CCCNC3)n2)cc1` (stereo not shown) [Compound 23], the concentration for half-maximal inhibition (IC50) with RBL-2H3 cells and on Syk kinase was 0.1 to 1 µM each time.
`CC(=O)N1CCC(n2cc(-c3cc4nccnc4c(NCC4CNCCC4(F)F)n3)cn2)CC1` (stereo not shown) [Compound 320]: the IC50 with RBL-2H3 cells and on Syk kinase was 0.001 to 0.1 µM each time.
In the case of `c1cnc2c(NC[C@H]3CNCCO3)nc(-c3ccc(N4CCOCC4)nc3)cc2n1` [Compound 97], the 50% inhibitory concentration (IC50) in the assay on RBL-2H3 cells and on Syk kinase was 0.1 to 1 µM in each case.
`c1cnc2c(NC[C@@H]3CNCCO3)nc(-c3ccc(N4CCCOCC4)cc3)cc2n1` [Compound 218]: the 50% inhibitory concentration (IC50) in the assay with RBL-2H3 cells and on Syk kinase was 0.001 to 0.1 µM throughout.
On to `C[C@@H](O)C(=O)N1CCN(c2ccc(-c3cc4nccnc4c(NC[C@@H]4CNCCO4)n3)cc2)CC1` [Compound 406], for which the concentration for half-maximal inhibition (IC50) lay in the range of 0.1 to 1 µM in the assay on RBL-2H3 cells and 0.001 to 0.1 µM on Syk kinase.
Consider `OCCN1CCN(c2ccc(-c3cc4nccnc4c(NCC4CNCCO4)n3)cc2)CC1` (stereo not shown) [Compound 216], for which the IC50 in the assay on RBL-2H3 cells and on Syk kinase was 0.001 to 0.1 µM each time.
As to `CC1(C(=O)N2CCN(c3ccc(-c4cc5nccnc5c(NC[C@@H]5CNCCO5)n4)cc3)CC2)COC1` [Compound 404], the half-inhibitory concentration (IC50) fell in the range of 0.1 to 1 µM in the assay on RBL-2H3 cells and 0.001 to 0.1 µM at Syk kinase.
For `CS(=O)(=O)N1CCO[C@H](CNc2nc(-c3ccc(C4CCN(CCCO)CC4)cc3)cc3nccnc23)C1` [Compound 494] the same measures were 0.1 to 1 µM and 0.001 to 0.1 µM.
For `CN(C)c1ccc(-c2cc3nccnc3c(NC[C@H]3CNCCO3)n2)cn1` [Compound 106] the same measures were 0.1 to 1 µM and 0.1 to 1 µM.
Take `CN1CCN(c2ccc(-c3cc4nccnc4c(NC[C@@H]4CNCCO4)n3)cn2)CC1` [Compound 259]: the concentration for half-maximal inhibition (IC50) in the assay on RBL-2H3 cells and at Syk kinase was 0.1 to 1 µM throughout.
`CN(C)Cc1ccc(-c2cc3nccnc3c(NCC3CNCCC3(F)F)n2)cc1` (stereo not shown) [Compound 303]: the half-maximal inhibitory concentration (IC50) in the assay on RBL-2H3 cells and at Syk kinase was 0.1 to 1 µM each time.
As for `FC1(CNc2nc(-c3ccc(N4CCOCC4)cc3)cc3nccnc23)CCCNC1` (stereo not shown) [Compound 251], the half-inhibitory concentration (IC50) in the assay with RBL-2H3 cells and at Syk kinase was 0.001 to 0.1 µM in each case.
On to `CC1CN(c2ccc(-c3cc4nccnc4c(NC[C@@H]4CNCCO4)n3)cc2)CCO1` (stereo partly shown) [Compound 208], for which the concentration for half-maximal inhibition (IC50) in the assay with RBL-2H3 cells and on Syk kinase was 0.001 to 0.1 µM throughout.
With `OCCN1CCN(c2ccc(-c3cc4nccnc4c(NCC4CNCCC4(F)F)n3)cc2)CC1` (stereo not shown) [Compound 312], the IC50 in the assay on RBL-2H3 cells and on Syk kinase was 0.001 to 0.1 µM each time.
In the case of `FC1(F)CCN(c2ccc(-c3cc4nccnc4c(NC[C@@H]4CNCCO4)n3)cc2)C1` [Compound 226], the IC50 with RBL-2H3 cells and on Syk kinase was 0.001 to 0.1 µM in each case.
With `Cc1cc(-c2cc3nccnc3c(NC[C@@H]3CNCCC3(F)F)n2)ccc1N1CCOCC1` [Compound 370, (S)—N-((4,4-difluoropiperidin-3-yl)methyl)-7-(3-methyl-4-morpholinophenyl) pyrido[4,3-b]pyrazin-5-amine], the half-maximal inhibitory concentration (IC50) in the assay on RBL-2H3 cells and on Syk kinase was 0.001 to 0.1 µM in each case.
As to `CNc1ccc(-c2cc3nccnc3c(NC[C@@H]3CNCCO3)n2)cc1C#N` [Compound 473], the concentration for half-maximal inhibition (IC50) in the assay on RBL-2H3 cells and at Syk kinase was 0.001 to 0.1 µM in each case.
Take `CN(C)c1ccc(-c2cc3nccnc3c(NC[C@@H]3CN(C(=O)C(F)F)CCO3)n2)cc1` [Compound 455]: the 50% inhibitory concentration (IC50) in the assay on RBL-2H3 cells and on Syk kinase was 0.001 to 0.1 µM throughout.
With `FC(F)CNc1nc(-c2ccc(N3CCOCC3)cc2)cc2nccnc12` [Compound 197], the half-maximal inhibitory concentration (IC50) in the assay with RBL-2H3 cells was 0.1 to 1 µM.
For `N#CCCNc1nc(-c2ccc(N3CCOCC3)cc2)cc2nccnc12` [Compound 187], the half-inhibitory concentration (IC50) in the assay on RBL-2H3 cells lay in the range of 0.1 to 1 µM.
For the compound `OCC1(CNc2nc(-c3ccc(N4CCOCC4)cc3)cc3nccnc23)COC1` [Compound 171], the IC50 in the assay on RBL-2H3 cells fell in the range of 0.1 to 1 µM.
Consider `CCN(CC)c1ccc(-c2cc3nccnc3c(NC[C@@H]3CN(C(=O)C(F)F)CCO3)n2)cc1` [Compound 471], for which the 50% inhibitory concentration (IC50) at Syk kinase was in the range of 0.1 to 1 µM.
Same read-out and setting: the value for `CC(C)C(=O)N1CCO[C@H](CNc2nc(-c3ccc(N4CCOCC4)cc3)cc3nccnc23)C1` [Compound 328] was 0.1 to 1 µM.
Regarding `CN(CCO)c1ccc(-c2cc3nccnc3c(NC[C@@H]3CNCCO3)n2)cc1` [Compound 472, (S)-2-(methyl(4-(5-(morpholin-2-ylmethylamino)pyrido[4,3-b]pyrazin-7-yl)phenyl)amino)ethanol], the IC50 at Syk kinase lay in the range of 0.1 to 1 µM.
On the same count and under the same terms, the value for `CC(C)Nc1nc(-c2ccc(N3CCOCC3)cc2)cc2nccnc12` [Compound 195] was 0.1 to 1 µM; that for `COc1ccc(-c2cc3nccnc3c(NCC3CNCCC3(F)F)n2)cn1` (stereo not shown) [Compound 299] was 0.1 to 1 µM; that for `CN1CCN(c2ccc(-c3cc4nccnc4c(NCC4(F)CCCNC4)n3)cc2)CC1` (single isomer, unassigned) [Compound 380] was 0.001 to 0.1 µM.
The same measure, in the same setting: the value for `CS(=O)(=O)c1ccc(-c2cc3nccnc3c(NC[C@H]3CNCCC3(F)F)n2)cc1` [Compound 391, (R)—N-((4,4-difluoropiperidin-3-yl)methyl)-7-(4-(methylsulfonyl)phenyl)pyrido[4,3-b]pyrazin-5-amine] was 0.1 to 1 µM; that for `CN(C)CCOc1ccc(-c2cc3nccnc3c(NCC3CCCNC3)n2)cc1` (stereo not shown) [Compound 90] was 0.001 to 0.1 µM; that for `CS(=O)(=O)N1CCO[C@H](CNc2nc(-c3ccc(C4CCNCC4)cc3)cc3nccnc23)C1` [Compound 459] was 0.001 to 0.1 µM.
On the same count and under the same terms, the value for `CCN(CC1CCCNC1)c1nc(-c2ccc(N3CCOCC3)cc2)cc2nccnc12` (stereo not shown) [Compound 154] was 0.1 to 1 µM.
With `c1cc(-c2cc3nccnc3c(NCC3CCCNC3)n2)cc(N2CCOCC2)c1` (stereo not shown) [Compound 14], the IC50 on Syk kinase was in the range of 0.1 to 1 µM.
As for `CS(=O)(=O)c1ccc(-c2cc3nccnc3c(NC[C@@H]3CNCCO3)n2)cc1` [Compound 211], the IC50 on Syk kinase was 0.1 to 1 µM.
As for `CN(C)S(=O)(=O)c1ccc(-c2cc3nccnc3c(NCC3CNCCO3)n2)cc1` (stereo not shown) [Compound 227], the IC50 at Syk kinase is 0.1 to 1 µM.
Turning to `Cc1cc(-c2cc3nccnc3c(NCC3CNCC(F)(F)C3)n2)ccc1N1CCOCC1` (stereo not shown) [Compound 201], the IC50 at Syk kinase fell in the range of 0.1 to 1 µM.
In the case of `CC(C)(O)[C@@H]1CCN(c2nc(-c3ccc(N4CCOCC4)cc3)cc3nccnc23)C1` [Compound 170], in the assay with RBL-2H3 cells, the half-inhibitory concentration (IC50) lay in the range of 0.1 to 1 µM.
In the case of `CC(=O)N1CCO[C@H](CNc2nc(-c3ccc(N4CCOCC4)cc3)cc3nccnc23)C1` [Compound 326], the IC50 at Syk kinase lay within 0.1 to 1 µM.
The same measure, in the same setting: the value for `c1cnc2c(NC[C@@H]3CNCCO3)nc(-c3ccc(OC4CCOCC4)nc3)cc2n1` [Compound 271] was 0.1 to 1 µM.
On the same count and under the same terms, the value for `FC1(CNc2nc(-c3ccc(N4CCOCC4)nc3)cc3nccnc23)CCCNC1` (stereo not shown) [Compound 252] was 0.1 to 1 µM.
Turning to `Fc1ccc(-c2cc3nccnc3c(NCC3CCCNC3)n2)cc1Cl` (stereo not shown) [Compound 20], the IC50 at Syk kinase was 0.1 to 1 µM.
`FC(F)(F)C1CCC(CNc2nc(-c3ccc(N4CCOCC4)cc3)cc3nccnc23)CN1` (stereo not shown) [Compound 199]: the IC50 in the assay on RBL-2H3 cells is 0.1 to 1 µM.
On to `NC(=O)CCC(=O)N1CCN(c2ccc(-c3cc4nccnc4c(NCC4CNCCO4)n3)cc2)CC1` (stereo not shown) [Compound 422], for which the IC50 at Syk kinase was 0.001 to 0.1 µM.
Same read-out and setting: the value for `CC(Nc1nc(-c2ccc(N3CCOCC3)nc2)cc2nccnc12)C1CNCCO1` (stereo not shown) [Compound 277] was 0.1 to 1 µM; that for `CN(C)C(=O)Cc1ccc(-c2cc3nccnc3c(NC[C@@H]3CNCCO3)n2)cc1` [Compound 224] was 0.1 to 1 µM.
The same measure, in the same setting: the value for `CCC(=O)N1CCO[C@H](CNc2nc(-c3ccc(N4CCOCC4)cc3)cc3nccnc23)C1` [Compound 327] was 0.1 to 1 µM; that for `OCCn1cc(-c2cc3nccnc3c(NC[C@H]3CCCNC3)n2)cn1` [Compound 34] was 0.001 to 0.1 µM; that for `O=C(O)c1ccccc1Nc1nc(-c2ccc(N3CCOCC3)cc2)cc2nccnc12` [Compound 361] was 0.1 to 1 µM.
As for `c1cnc2c(NCC3CCCNC3)nc(-c3ccoc3)cc2n1` (stereo not shown) [Compound 31], the IC50 on Syk kinase fell in the range of 0.1 to 1 µM.
Regarding `NS(=O)(=O)c1ccc(-c2cc3nccnc3c(NCC3CCCNC3)n2)cc1` (stereo not shown) [Compound 43], the half-inhibitory concentration (IC50) at Syk kinase was 0.1 to 1 µM.
For `CS(=O)(=O)CCOc1ccc(-c2cc3nccnc3c(NC[C@@H]3CNCCO3)n2)cc1` [Compound 478, (S)-7-(4-(2-(methylsulfonyl)ethoxy)phenyl)-N-(morpholin-2-ylmethyl)pyrido[4,3-b]pyrazin-5-amine], on Syk kinase, the IC50 was 0.1 to 1 µM.
Same read-out and setting: the value for `Fc1cc(-c2cc3nccnc3c(NC[C@H]3CNCCC3(F)F)n2)ccc1N1CCOCC1` [Compound 369, (R)—N-((4,4-difluoropiperidin-3-yl)methyl)-7-(3-fluoro-4-morpholinophenyl)pyrido[4,3-b]pyrazin-5-amine] was 0.1 to 1 µM.
Regarding `c1cnc2c(NCC3CCCNC3)nc(-c3ccc(N4CCNCC4)cc3)cc2n1` (stereo not shown) [Compound 61], the half-maximal inhibitory concentration (IC50) on Syk kinase is 0.001 to 0.1 µM.
The same measure, in the same setting: the value for `COc1ccc(-c2cc3nccnc3c(NC[C@@H]3CN(C(=O)C(F)F)CCO3)n2)cc1OC` [Compound 454] was 0.1 to 1 µM; that for `CNc1nc(-c2ccc(N3CCOCC3)cc2)cc2nccnc12` [Compound 357] was 0.1 to 1 µM; that for `CS(=O)(=O)N1CCC(n2cc(-c3cc4nccnc4c(NC[C@@H]4CNCCO4)n3)cn2)CC1` [Compound 431] was 0.001 to 0.1 µM.
For the compound `O=C(CO)N1CCO[C@H](CNc2nc(-c3ccc(N4CCOCC4)cc3)cc3nccnc23)C1` [Compound 337], the IC50 at Syk kinase is 0.1 to 1 µM.
In the case of `FC1(F)CCNC[C@@H]1CNc1nc(-c2ccc(N3CCOCC3)nc2)cc2nccnc12` [Compound 375, (R)—N-((4,4-difluoropiperidin-3-yl)methyl)-7-(6-morpholinopyridin-3-yl)pyrido[4,3-b]pyrazin-5-amine], the IC50 at Syk kinase lay within 0.1 to 1 µM.
